The values below come from article PMC9616048, “Thermal proteome profiling reveals Haemonchus orphan protein HCO_011565 as a target of the nematocidal small molecule UMW-868” (Frontiers in Pharmacology, 2022).

Test [1] has as its system exsheathed third-stage larvae (xL3s) of H. contortus. Nature of the test: High throughput screen, xL3 motility (infrared light beam-interference). The test is classed as cell-based. The following applies: Haemonchus contortus, 90 h, read-out: Motility reduction at 90 h (%). The protocol:
An established platform was used for compound screening ([Taki et al., 2021a]). Using a semi-automated liquid handling robot (VIAFLO ASSIST PLUS, Integra Biosciences), compounds were individually diluted to […] in LB* containing 0.2% (v/v) DMSO and then dispensed in 20 µl into the wells of sterile 384-well flat bottom microtitre plates (cat. no. 3680; Corning); 320 compounds were arrayed on each plate, with 16 wells being negative controls (with LB* + 0.2% DMSO) and four wells containing each monepantel (Zolvix; Elanco), moxidectin (Cydectin; Virbac), monepantel + abamectin (Zolvix Plus; Elanco) and compound MIPS-0018666 (abbreviated here as M-666) ([Le et al., 2018]) as positive controls (20 µM). Following the dilution and dispensing of compounds into plates, 80 H. contortus xL3s in 20 μl of LB* were transferred to individual wells; after this step, the final concentrations were 20 µM of test- or positive-control compound, and 0.2% of DMSO. During dispensing, xL3s were maintained in a homogenous suspension using a constant stream of bubbles produced employing an aquarium pump (H2Pro). Plates containing H. contortus xL3s were incubated at 38 °C, 10% (v/v) CO2 and >90% relative humidity.
After 90 h of incubation with compounds (20 μM), H. contortus xL3s motility was measured for 15 min in individual wells of each plate by infrared light beam-interference ([Simonetta and Golombek, 2007]) using a WMicroTracker ONE instrument (Phylumtech). Raw data captured were normalised against measurements obtained for the positive (monepantel) and negative (LB* + 0.2% DMSO) controls to remove plate-to-plate variation by calculating the percentage of motility using the program GraphPad Prism (v.9.1.2; GraphPad Software). A compound was considered active (“hit”) if it reduced larval motility by ≥ 70%. To continually assess the performance of the screening assay, the Z′-factor ([Zhang et al., 1999]) was calculated (using data for the DMSO and the M-666 controls) for individual plates (n = 43) and was consistently ≥0.7; reliable assays achieve a Z′-factor of between 0.5 and 1. The signal to background (S/B) ratio (for the same controls) ([Sui and Wu, 2007]) was consistently >200.

The test system of test [2] is H. contortus xL3 to L4 development. Nature of the test: High throughput screen, larval development and phenotype at 168 h. It counts as cell-based, Haemonchus contortus. The following applies: for inhibition at 20 µM: Haemonchus contortus, development to L4; for Abnormal phenotype detected at 168 h: 20 µM. How it is done:
Following the measurement of xL3 motility, plates were incubated again for 78 h (i.e., a total of 168 h) under the same conditions. Thereafter, 40 µl of 1% (v/v) iodine were added to individual wells, and worms examined using a light microscope (M80, Leica) at 60-times magnification to assess larval development, based on the presence/absence of a well-developed pharynx ([Sommerville, 1966]), and/or phenotypic alterations with respect to untreated xL3s.

`OC(CNCCNc1nccc(C(F)(F)F)n1)c1ccccc1` (stereo not shown) [MBHF-hit35, 1-phenyl-2-[(2-{[4-(trifluoromethyl)pyrimidin-2-yl]amino}ethyl)amino]ethan-1-ol]: the inhibition at 20 µM in test [1] was 70.2%; in test [2] it was below 80%.
Regarding `C(#Cc1ccc(-c2ccn[nH]2)cc1)c1ccccc1` [MBHF-hit6, 5-[4-(2-phenyleth-1-ynyl)phenyl]-1H-pyrazole], the inhibition at 20 µM in test [1] worked out at 94%. Further, in test [2], the “Abnormal phenotype detected at 168 h” value was “Cur, Evi” and the inhibition at 20 µM stood at 100%.
For the compound `O=[N+]([O-])c1ccc2c(c1)CCN2S(=O)(=O)c1ccccc1` [MBHF-hit31, 5-nitro-1-(phenylsulfonyl)indoline], the inhibition at 20 µM is 71.5% in test [1] and below 80% in test [2].
For `c1ccc(COc2ccc(CCC3OCCO3)cc2)cc1` [MBHF-hit32, 2-[4-(benzyloxy)phenethyl]-1,3-dioxolane], in that order: 71.1% and below 80%.
As for `N#Cc1c(Cl)c(Cl)c(Cl)c(Cl)c1C#N` [MBHF-hit8, 3,4,5,6-tetrachlorophthalonitrile], the values for the inhibition at 20 µM in test [1] and in test [2] were 91% and below 80%, respectively.
With `O=C(c1ccc(-c2cccs2)s1)c1ccc(F)cc1F` [MBHF-hit20, (2,4-difluorophenyl)[5-(2-thienyl)-2-thienyl]methanone], in test [1], the inhibition at 20 µM was 76.7%. Moreover, in test [2], the “Abnormal phenotype detected at 168 h” value is “Str, Cur” and the inhibition at 20 µM stood at 100%.
Turning to `CC1=CSC(=C(C#N)C(=O)c2ccccc2Cl)N1c1ccccc1Cl` [MBHF-hit13, 3-(2-chlorophenyl)-2-[3-(2-chlorophenyl)-4-methyl-1,3-thiazol-2(3H)-ylidene]-3-oxopropanenitrile], the results for the inhibition at 20 µM in test [1] and in test [2] were 78.8% and below 80%, respectively.
In the case of `N#CC(=NNc1cccc(C(F)(F)F)c1)C(=O)c1csc(-c2cccnc2)n1` [MBHF-hit18, 3-oxo-3-[2-(3-pyridyl)-1,3-thiazol-4-yl]-2-{2-[3-(trifluoromethyl)phenyl]hydrazono}propanenitrile], the values for the inhibition at 20 µM in test [1] and in test [2] were 77.1% and below 80%, respectively.
Consider `CCCc1ccc(-c2ccc(C#N)cc2)nc1` [MBHF-hit19, 4-(5-propyl-2-pyridyl)benzonitrile], for which the inhibition at 20 µM in test [1] was 76.9%; in test [2] it was below 80%.
Take `CCOC(=O)c1ccc(Oc2ccc(Cl)cc2Cl)c([N+](=O)[O-])c1` [MBHF-hit36, ethyl 4-(2,4-dichlorophenoxy)-3-nitrobenzoate]: the values for the inhibition at 20 µM in test [1] and in test [2] were 70.2% and below 80%, respectively.
Take `COc1ccc(SCc2nsc(Sc3ccc(OC)cc3)n2)cc1` [MBHF-hit16, 5-[(4-methoxyphenyl)thio]-3-{[(4-methoxyphenyl)thio]methyl}-1,2,4-thiadiazole]: the inhibition at 20 µM in test [1] amounted to 78.5%. For the same compound, in test [2], the “Abnormal phenotype detected at 168 h” value was “Cur, Evi” and the inhibition at 20 µM was 80 to 99%.
For the compound `N#CC(C#N)=NNc1ccc(C(F)(F)F)cc1` [MBHF-hit1, 2-{2-[4-(trifluoromethyl)phenyl]hydrazono}malononitrile], the inhibition at 20 µM in test [1] worked out at 102%; in test [2], 100%.
Regarding `Cc1ccc2oc(=O)n(CCC(N)=NOC(=O)c3ccccc3)c2c1` [MBHF-hit14, N'-(benzoyloxy)-3-[5-methyl-2-oxo-1,3-benzoxazol-3(2H)-yl]propanimidamide], the results for the inhibition at 20 µM in test [1] and in test [2] were 81.6% and below 80%, respectively.
As for `COc1c(C(=O)NCc2ccc(Cl)cc2)csc1Cl` [MBHF-hit27, 5-chloro-N-(4-chlorobenzyl)-4-methoxy-3-thiophenecarboxamide], the inhibition at 20 µM in test [1] worked out at 73.4%. For the same compound, in test [2], the “Abnormal phenotype detected at 168 h” value is reported as “Cur, Evi” and the inhibition at 20 µM is below 80%.
As for `O=C(c1cc(C(F)(F)F)cc(C(F)(F)F)c1)N1CCC(O)(c2ccc(Cl)cc2)CC1` [MBHF-hit10, [3,5-bis(trifluoromethyl)phenyl][4-(4-chlorophenyl)-4-hydroxypiperidino]methanone], the inhibition at 20 µM in test [1] is 84.2%; in test [2], below 80%.
Turning to `O=C(Nc1ccc(F)cc1)Nc1cnn(-c2ccc([N+](=O)[O-])cc2)c1C(F)(F)F` [MBHF-hit12, N-(4-fluorophenyl)-N'-[1-(4-nitrophenyl)-5-(trifluoromethyl)-1H-pyrazol-4-yl]urea], in test [1], the inhibition at 20 µM was 82.3%. Besides, in test [2], the “Abnormal phenotype detected at 168 h” value is “Cur, Evi” and the inhibition at 20 µM lay in the range of 80 to 99%.
`NC(=O)C1CCN(C(=O)c2ccc(Oc3cc(Cl)cc(Cl)c3)o2)CC1` [MBHF-hit15, 1-{[5-(3,5-dichlorophenoxy)-2-furyl]carbonyl}-4-piperidinecarboxamide]: the inhibition at 20 µM is 78.7% in test [1] and below 80% in test [2].
`CC(=O)c1ccc(NC(=O)CSc2nnc(-c3ccco3)n2C)cc1` [MBHF-hit28, N-(4-acetylphenyl)-2-{[5-(2-furyl)-4-methyl-4H-1,2,4-triazol-3-yl]sulfanyl}acetamide]: the inhibition at 20 µM in test [1] is 72.7%; in test [2], below 80%.
Turning to `FC(F)(F)c1ccc(SCc2ccc(-c3ncns3)cc2)nc1` [MBHF-hit33, 5-[4-({[5-(trifluoromethyl)-2-pyridyl]thio}methyl)phenyl]-1,2,4-thiadiazole], the inhibition at 20 µM is 70.3% in test [1] and 80 to 99% in test [2]. For the same compound, the “Abnormal phenotype detected at 168 h” value in test [2] was “Cur, Evi”.
As to `O=C(C=CSc1ccc(Cl)cc1)c1cccs1` [MBHF-hit9, 3-[(4-chlorophenyl)thio]-1-(2-thienyl)prop-2-en-1-one], the values for the inhibition at 20 µM in test [1] and in test [2] were 89.4% and 100%, respectively.
Consider `CCCCCc1cnc(-c2ccc(C#N)cc2)nc1` [MBHF-hit25, 4-(5-pentylpyrimidin-2-yl)benzonitrile], for which the inhibition at 20 µM in test [1] worked out at 74.5%. In test [2], the “Abnormal phenotype detected at 168 h” value is given as “Cur, Evi” and the inhibition at 20 µM came to 100%.
With `Cc1nc2c(cnn2-c2ccccc2)c(=O)o1` [MBHF-hit24, 6-methyl-1-phenylpyrazolo[3,4-d][1,3]oxazin-4(1H)-one], the inhibition at 20 µM in test [1] was 74.6%; in test [2], below 80%.
Take `CSc1c(-c2ccc(Cl)cc2)[nH]c2ccccc12` [MBHF-hit7, 2-(4-chlorophenyl)-3-(methylthio)-1H-indole]: the inhibition at 20 µM in test [1] turned out to be 91.9%; in test [2], 100%. In test [2], the “Abnormal phenotype detected at 168 h” value was “Cur, Evi”.
Take `Nc1ccccc1C(=O)N1CCN(c2ccc([N+](=O)[O-])cn2)CC1` [MBHF-hit11, (2-aminophenyl)[4-(5-nitro-2-pyridyl)piperazino]methanone]: the inhibition at 20 µM in test [1] was 82.7%; in test [2], below 80%.
`Clc1ccc(Oc2ccnc3cc(Cl)ccc23)cc1` [MBHF-hit26, 7-chloro-4-(4-chlorophenoxy)quinoline]: the inhibition at 20 µM in test [1] is 73.9%; in test [2], 80 to 99%. Also, the “Abnormal phenotype detected at 168 h” value in test [2] was “Cur, Evi”.
As for `CS(=O)(=O)c1ccc2ccn(O)c2c1` [MBHF-hit29, 6-(methylsulfonyl)-1H-indol-1-ol], the inhibition at 20 µM in test [1] is 72%; in test [2], below 80%.
